Assay results published in US20230117920A1, “Library Construction Method, Cyclic Peptide, FXIIa Binder and IFNGR1 Binder” (The University of Tokyo, priority 2019, published 2023).
Starred links: 1 amine or outer side, 2 acyl side, 3 side chain; linkers in the order of their positions; H or OH if unused. Positions of bridges follow the written chain, without caps; N, C: chain ends. Non-standard residues stand in square brackets, D forms with d. Residues, ends and D or L forms follow the SMILES beside them. ACHC(1S,2S) = O=C([C@H]1CCCC[C@@H]1N[*:1])[*:2]; X1 = O=C([C@@H]1CCC[C@H]1N[*:1])[*:2]; X2 = O=C([C@H]1CCC[C@@H]1N[*:1])[*:2]

Tests used:
[1] = target: human factor XIIa (FXIIa) (Homo sapiens, UniProt P00748); test: biochemical; conditions: read-out: ka
[2] = target: interferon γ receptor 1 (IFNGR1) (Homo sapiens, UniProt P15260); test: biochemical; conditions: for kon: read-out: ka

Structure (SMILES)	kon [1]	Kd [2]	kon [2]
CC(C)C[C@@H]1NC(=O)[C@H](CCCNC(=N)N)NC(=O)[C@H](C)NC(=O)[C@H](CCCNC(=N)N)NC(=O)[C@H]([C@@H](C)O)NC(=O)[C@H](CO)NC(=O)[C@H](CCCNC(=N)N)NC(=O)[C@H](CC(=O)O)NC(=O)[C@H](CC(N)=O)NC(=O)[C@@H](Cc2ccc(O)cc2)NC(=O)CSC[C@H](C(N)=O)NC(=O)[C@H](C)NC(=O)[C@H](C(C)C)NC1=O [F1A] ({CH2CO}-[dY]NDRSTRARLVA[dC]-NH2; thioether N-13)	580000 M⁻¹ s⁻¹	–	–
CC(C)[C@@H]1NC(=O)CNC(=O)[C@H](Cc2ccccc2)NC(=O)[C@@H](Cc2ccc(O)cc2)NC(=O)CSC[C@H](C(=O)NCC(N)=O)NC(=O)[C@H]([C@@H](C)O)NC(=O)[C@H](CCCNC(=N)N)NC(=O)[C@H](CC(N)=O)NC(=O)[C@H](Cc2ccc(O)cc2)NC(=O)[C@H](Cc2ccccc2)NC(=O)[C@@H]2CCC[C@H]2NC(=O)[C@H](CCCNC(=N)N)NC1=O [I1-1] ({CH2CO}-[dY]FGVR[X1]FYNRT[dC]G-NH2; thioether N-12)	–	5 nM	1.74e+06 M⁻¹ s⁻¹
CC(C)C[C@@H]1NC(=O)CNC(=O)[C@H](C(C)C)NC(=O)[C@@H](Cc2ccc(O)cc2)NC(=O)CSC[C@H](C(=O)NCC(N)=O)NC(=O)[C@H]([C@@H](C)O)NC(=O)[C@H](CCCNC(=N)N)NC(=O)[C@H](CC(N)=O)NC(=O)[C@H](CC(C)C)NC(=O)[C@H](CO)NC(=O)[C@@H]2CCC[C@H]2NC(=O)[C@H](CC(N)=O)NC1=O [I1-3] ({CH2CO}-[dY]VGLN[X1]SLNRT[dC]G-NH2; thioether N-12)	–	150 nM	1.41e+06 M⁻¹ s⁻¹
CC(C)C[C@@H]1NC(=O)[C@H](CO)NC(=O)[C@H](Cc2ccccc2)NC(=O)[C@@H](Cc2ccc(O)cc2)NC(=O)CSC[C@H](C(=O)NCC(N)=O)NC(=O)CNC(=O)[C@H](CCCNC(=N)N)NC(=O)[C@H](CO)NC(=O)[C@H](CCCNC(=N)N)NC(=O)[C@H](CC(N)=O)NC(=O)[C@H](Cc2ccccc2)NC(=O)[C@H](CO)NC(=O)[C@@H]2CCC[C@H]2NC(=O)[C@H](CCCNC(=N)N)NC1=O [I1-4] ({CH2CO}-[dY]FSLR[X1]SFNRSRG[dC]G-NH2; thioether N-14)	–	5.76 nM	3.39e+06 M⁻¹ s⁻¹
CC(C)C[C@@H]1NC(=O)[C@H](C)NC(=O)[C@H](Cc2ccccc2)NC(=O)[C@@H](Cc2ccc(O)cc2)NC(=O)CSC[C@H](C(=O)NCC(N)=O)NC(=O)[C@H](CCCNC(=N)N)NC(=O)[C@H](CCCNC(=N)N)NC(=O)[C@H](CC(N)=O)NC(=O)[C@H]2CCCC[C@@H]2NC(=O)[C@H](CCCNC(=N)N)NC(=O)[C@@H]2CCC[C@H]2NC(=O)[C@H](CC(N)=O)NC1=O [I1-5] ({CH2CO}-[dY]FALN[X1]R[ACHC(1S,2S)]NRR[dC]G-NH2; thioether N-12)	–	336 nM	3.01e+06 M⁻¹ s⁻¹
CC(C)[C@@H]1NC(=O)CNC(=O)[C@H](Cc2ccccc2)NC(=O)[C@@H](Cc2ccc(O)cc2)NC(=O)CSC[C@H](C(=O)NCC(N)=O)NC(=O)[C@H]([C@@H](C)O)NC(=O)[C@H](CCCNC(=N)N)NC(=O)[C@H](CC(N)=O)NC(=O)[C@H](Cc2ccc(O)cc2)NC(=O)[C@H](Cc2ccccc2)NC(=O)[C@@H]2CCC[C@H]2NC(=O)[C@H]2CCC[C@@H]2NC1=O [I1-6] ({CH2CO}-[dY]FGV[X2][X1]FYNRT[dC]G-NH2; thioether N-12)	–	1.87 nM	920000 M⁻¹ s⁻¹
CC(C)C[C@@H]1NC(=O)[C@H](CC(N)=O)NC(=O)[C@H](Cc2ccc(O)cc2)NC(=O)[C@H](CCCNC(=N)N)NC(=O)[C@@H]2CCCN2C(=O)[C@@H](Cc2ccc(O)cc2)NC(=O)CSC[C@H](C(=O)NCC(N)=O)NC(=O)[C@H](CC(N)=O)NC(=O)[C@@H]2CCC[C@H]2NC(=O)[C@H](Cc2ccccc2)NC(=O)[C@H](CCCNC(=N)N)NC(=O)[C@@H]2CCCN2C(=O)[C@H](CO)NC(=O)[C@H](C)NC(=O)CNC(=O)[C@H]2CCC[C@@H]2NC1=O [I2] ({CH2CO}-[dY]PRYNL[X2]GASPRF[X1]N[dC]G-NH2; thioether N-16)	–	12.3 nM	1.98e+06 M⁻¹ s⁻¹
